# From patent US20210322443A1 (MAPREG, priority 2015, published 2021)
# How the values were obtained:
# [1] = target: T1, human progesterone receptor(PR) (Homo sapiens, UniProt P06401); assay: Progesterone receptor antagonist transactivation test (progesterone 1 nM) in transfected HEK293T cells; format: cell-based; details: with progesterone 1 nM, increasing amounts, FIG. 2
# T1 construct: expressed in transfected cells; host or cells: HEK293T
# T1 sequence (P06401 1-933): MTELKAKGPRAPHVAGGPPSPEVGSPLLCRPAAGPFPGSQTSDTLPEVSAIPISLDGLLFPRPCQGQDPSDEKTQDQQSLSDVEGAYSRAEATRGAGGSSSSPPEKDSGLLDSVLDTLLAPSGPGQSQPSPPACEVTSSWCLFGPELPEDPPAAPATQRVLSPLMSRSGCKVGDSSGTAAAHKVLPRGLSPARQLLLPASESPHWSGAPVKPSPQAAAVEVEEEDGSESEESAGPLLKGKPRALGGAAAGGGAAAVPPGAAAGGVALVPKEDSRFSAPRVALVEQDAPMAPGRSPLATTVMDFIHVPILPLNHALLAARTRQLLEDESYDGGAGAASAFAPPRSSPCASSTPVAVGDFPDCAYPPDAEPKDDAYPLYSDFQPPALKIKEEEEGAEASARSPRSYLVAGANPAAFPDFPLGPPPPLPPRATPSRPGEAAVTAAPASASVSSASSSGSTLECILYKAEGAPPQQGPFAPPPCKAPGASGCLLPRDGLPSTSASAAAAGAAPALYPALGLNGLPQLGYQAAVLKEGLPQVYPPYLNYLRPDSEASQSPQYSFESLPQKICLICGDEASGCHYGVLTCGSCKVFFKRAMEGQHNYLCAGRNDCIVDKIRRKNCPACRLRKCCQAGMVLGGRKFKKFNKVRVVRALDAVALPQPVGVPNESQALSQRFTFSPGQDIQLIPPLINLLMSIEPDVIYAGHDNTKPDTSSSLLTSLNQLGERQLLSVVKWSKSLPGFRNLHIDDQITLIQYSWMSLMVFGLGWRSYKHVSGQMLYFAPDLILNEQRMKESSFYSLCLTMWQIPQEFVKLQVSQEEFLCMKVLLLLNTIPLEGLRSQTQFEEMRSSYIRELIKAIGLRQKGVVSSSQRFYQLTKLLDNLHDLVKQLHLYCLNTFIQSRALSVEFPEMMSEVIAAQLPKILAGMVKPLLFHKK
# Protocol: (§1) The main experimental setting used is the following: HEK293T cells were transiently transfected, using calcium phosphate precipitation technology, with expression vectors pSG5hPR (which permits expression of human progesterone receptor(PR)), pFC31-luc (contains the luciferase gene under the control of the MMTV promoter, which is in turn activated by binding of a progestin to progesterone receptor) and pcbetagal (which permits expression of betagalactosidase), and cultured during 24 hours with increasing amounts of various compositions: • 1. […] Test of progesterone receptor […] activity: transfected cells were cultured with progesterone (1 nM) and increasing amounts of RU486 (a well-known progesterone receptor antagonist) or 3-methoxy-pregnenolone. • With this setting, a compound with progesterone receptor antagonist activity competes with progesterone for the occupation of progesterone receptor and results in a progressive loss of transactivation activity when the amount of this compound is increased compared to progesterone.
# [2] = target: Oppioid δ2 (Homo sapiens, UniProt P41143); assay: CNS receptor binding assay; details: [3H] DADLE, Human recombinant (CHO cells), read-out: % Inhibition of control specific binding
# Chain of Oppioid δ2 (P41143 whole entry): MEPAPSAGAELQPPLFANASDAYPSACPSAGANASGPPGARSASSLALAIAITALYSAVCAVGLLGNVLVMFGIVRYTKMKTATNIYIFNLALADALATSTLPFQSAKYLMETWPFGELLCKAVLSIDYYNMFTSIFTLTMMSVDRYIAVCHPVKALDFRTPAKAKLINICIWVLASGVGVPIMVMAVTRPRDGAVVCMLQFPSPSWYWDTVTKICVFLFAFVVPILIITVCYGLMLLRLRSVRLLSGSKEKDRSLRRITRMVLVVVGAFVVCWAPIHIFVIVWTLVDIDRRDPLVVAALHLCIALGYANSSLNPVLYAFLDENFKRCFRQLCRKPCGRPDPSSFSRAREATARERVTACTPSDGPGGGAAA
# [3] = Blood parameters before and after MAP4343 treatment; format: in vivo, Wistar rats; details: dependent and non-dependent rats, pre/post treatment, 10 mg/kg sub-cutaneously, FIGS. 4 to 17
# Protocol: Blood samples were obtained before and after completion of the treatment with MAP4343 using retro-orbital sampling. Blood, serum and plasma were collected and analyzed using standard procedures to evaluate blood count panel, blood urea nitrogen, cholesterol, creatinine, T3, T4 and protein electrophoresis.
# Data were analyzed by appropriate mixed factorial ANOVA, followed Newman Keuls post hoc tests
# [4] = target: Noradrenergic β1 (Homo sapiens, UniProt P08588); assay: CNS receptor binding assay; details: read-out: % Inhibition of control specific binding
# Chain of Noradrenergic β1 (P08588 whole entry): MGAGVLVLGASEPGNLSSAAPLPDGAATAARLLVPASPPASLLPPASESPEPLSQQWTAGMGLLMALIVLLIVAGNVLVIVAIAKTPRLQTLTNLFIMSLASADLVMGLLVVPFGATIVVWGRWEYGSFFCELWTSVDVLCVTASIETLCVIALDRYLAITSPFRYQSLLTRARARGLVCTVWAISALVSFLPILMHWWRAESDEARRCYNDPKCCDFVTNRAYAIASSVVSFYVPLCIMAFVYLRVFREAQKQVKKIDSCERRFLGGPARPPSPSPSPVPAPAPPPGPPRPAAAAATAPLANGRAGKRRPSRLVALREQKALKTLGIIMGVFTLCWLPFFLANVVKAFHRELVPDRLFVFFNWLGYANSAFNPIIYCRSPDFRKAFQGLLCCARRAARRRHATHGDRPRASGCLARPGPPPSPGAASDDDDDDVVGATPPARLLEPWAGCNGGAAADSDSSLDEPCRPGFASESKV
# [5] = test system: Noradrenergic α2; assay: CNS receptor binding assay; details: 10 μM; [3H] RX 821002; rat cerebral cortex
# [6] = target: Serotoninergic 5-HT7 (Homo sapiens, UniProt P34969); assay: CNS receptor binding assay; details: read-out: % Inhibition of control specific binding
# Chain of Serotoninergic 5-HT7 (P34969 whole entry): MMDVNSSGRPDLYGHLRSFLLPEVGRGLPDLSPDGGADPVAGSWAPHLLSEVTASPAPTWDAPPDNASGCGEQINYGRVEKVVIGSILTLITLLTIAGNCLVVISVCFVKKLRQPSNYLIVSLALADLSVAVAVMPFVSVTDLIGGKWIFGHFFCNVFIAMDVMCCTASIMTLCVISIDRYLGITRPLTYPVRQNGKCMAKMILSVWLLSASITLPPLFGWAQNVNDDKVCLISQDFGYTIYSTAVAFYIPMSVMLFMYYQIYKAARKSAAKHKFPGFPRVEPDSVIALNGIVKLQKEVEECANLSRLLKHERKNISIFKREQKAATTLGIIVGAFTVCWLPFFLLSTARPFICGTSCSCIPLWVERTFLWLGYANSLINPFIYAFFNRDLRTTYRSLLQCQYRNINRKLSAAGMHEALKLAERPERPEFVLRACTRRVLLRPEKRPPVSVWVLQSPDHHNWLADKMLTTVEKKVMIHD
# [7] = target: T1, human progesterone receptor(PR); assay: Progesterone receptor agonist transactivation (MMTV-luciferase) in transfected HEK293T cells; format: cell-based; details: 24 hours, increasing amounts, FIG. 1
# Protocol: as §1
# [8] = target: Dopaminergic D3 (Homo sapiens, UniProt P35462); assay: CNS receptor binding assay; details: read-out: % Inhibition of control specific binding
# Chain of Dopaminergic D3 (P35462 whole entry): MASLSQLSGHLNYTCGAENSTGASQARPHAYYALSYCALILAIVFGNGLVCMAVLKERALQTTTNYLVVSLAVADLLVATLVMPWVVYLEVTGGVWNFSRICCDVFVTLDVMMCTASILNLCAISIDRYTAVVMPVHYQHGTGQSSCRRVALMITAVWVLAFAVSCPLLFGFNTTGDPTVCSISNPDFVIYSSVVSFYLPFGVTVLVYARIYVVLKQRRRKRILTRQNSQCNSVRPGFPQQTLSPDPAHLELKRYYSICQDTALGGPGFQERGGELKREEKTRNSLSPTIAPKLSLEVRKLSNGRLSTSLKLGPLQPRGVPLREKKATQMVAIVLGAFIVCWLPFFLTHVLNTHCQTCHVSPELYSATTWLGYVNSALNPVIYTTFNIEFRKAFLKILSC
smiles,measurement,setting,value
"CO[C@H]1CC[C@@]2(C)C(=CC[C@H]3[C@@H]4CC[C@H](C(C)=O)[C@@]4(C)CC[C@@H]32)C1 [MAP4343, 3β-methoxy-pregna-5-ene-20-one]",progesterone receptor antagonist activity,[1],weak progesterone receptor antagonist
same,inhibition at 10 µM,[2],-3%
same,"effect on blood parameters (blood count panel, blood urea nitrogen, cholesterol, creatinine, T3, T4, protein electrophoresis)",[3],no significant effects of dependence or treatment on any of the blood parameters investigated
same,inhibition at 10 µM,[4],1%
same,% Inhibition of control specific binding,[5],7%
same,inhibition at 10 µM,[6],-11%
same,"progesterone receptor agonist activity (transactivation, luciferase expression)",[7],does not have progesterone receptor agonist activity
same,inhibition at 10 µM,[8],8%
